The IC50 is the point on the concentration scale where inhibition reaches its midpoint. Low values mean higher potency, high ones lower potency.

One compound from ChEMBL document CHEMBL3352391, “Trichormamides A and B with Antiproliferative Activity from the Cultured Freshwater Cyanobacterium Trichormus sp. UIC 10339” (J Nat Prod, 2014) can be followed below.

In assay [1] the test system is HT-29. As to the kind of experiment: Antiproliferative activity against human HT-29 cells after 72 hrs by MTS assay. It counts as functional, cell-based. The conditions noted are these: HT-29, 72 h. In general terms: Tetrazolium assays rely on reduction of a dye to a coloured formazan, in cell work by metabolically active cells.
Assay [2] relates to MDA-MB-435. As to the kind of experiment: Antiproliferative activity against human MDA-MB-435 cells after 72 hrs by MTS assay. The assay is classed as functional, cell-based. The conditions noted are these: MDA-MB-435, 72 h.

Turning to `CCCCCCC[C@@H]1CC(=O)N[C@@H]([C@@H](C)CC)C(=O)N[C@H]([C@@H](O)C(C)C)C(=O)N[C@@H](CCO)C(=O)N[C@H]([C@@H](O)C(C)C)C(=O)N[C@@H](CCC(N)=O)C(=O)N(C)[C@@H]([C@@H](C)CC)C(=O)N[C@H](CO)C(=O)N[C@@H]([C@@H](C)O)C(=O)N2CCC[C@H]2C(=O)N[C@H](Cc2ccc(O)cc2)C(=O)N[C@@H]([C@@H](C)O)C(=O)N1`, the half-maximal inhibitory concentration (IC50) was 1500 nM in assay [1] and 800 nM in assay [2].
